{
  "source": "paper PMC10378394",
  "about": "(Current Issues in Molecular Biology, 2023)",
  "key": {"CDK5/p35(h)": {"target": "CDK5/p35(h) (Homo sapiens, UniProt Q00535)", "sequence (Q00535 whole entry)": "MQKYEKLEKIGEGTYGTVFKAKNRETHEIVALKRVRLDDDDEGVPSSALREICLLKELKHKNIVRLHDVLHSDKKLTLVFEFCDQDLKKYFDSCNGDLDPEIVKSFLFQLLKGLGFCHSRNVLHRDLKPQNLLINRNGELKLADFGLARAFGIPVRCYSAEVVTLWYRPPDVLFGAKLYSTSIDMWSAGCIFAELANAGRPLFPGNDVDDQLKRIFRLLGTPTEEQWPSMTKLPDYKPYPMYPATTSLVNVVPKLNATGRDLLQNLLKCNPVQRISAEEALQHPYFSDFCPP", "sequence (Q15078 whole entry partner)": "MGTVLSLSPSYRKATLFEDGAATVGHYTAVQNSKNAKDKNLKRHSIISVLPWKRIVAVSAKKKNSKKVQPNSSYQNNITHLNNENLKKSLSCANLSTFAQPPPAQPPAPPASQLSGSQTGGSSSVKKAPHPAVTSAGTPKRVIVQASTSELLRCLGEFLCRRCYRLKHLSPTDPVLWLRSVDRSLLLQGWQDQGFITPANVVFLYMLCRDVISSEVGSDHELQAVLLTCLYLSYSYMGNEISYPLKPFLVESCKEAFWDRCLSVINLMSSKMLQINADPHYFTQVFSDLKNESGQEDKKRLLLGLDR", "assay": "Eurofins kinase assay"}, "GSK3β(h)": {"target": "GSK3β(h) (Homo sapiens, UniProt P49841)", "sequence (P49841 whole entry)": "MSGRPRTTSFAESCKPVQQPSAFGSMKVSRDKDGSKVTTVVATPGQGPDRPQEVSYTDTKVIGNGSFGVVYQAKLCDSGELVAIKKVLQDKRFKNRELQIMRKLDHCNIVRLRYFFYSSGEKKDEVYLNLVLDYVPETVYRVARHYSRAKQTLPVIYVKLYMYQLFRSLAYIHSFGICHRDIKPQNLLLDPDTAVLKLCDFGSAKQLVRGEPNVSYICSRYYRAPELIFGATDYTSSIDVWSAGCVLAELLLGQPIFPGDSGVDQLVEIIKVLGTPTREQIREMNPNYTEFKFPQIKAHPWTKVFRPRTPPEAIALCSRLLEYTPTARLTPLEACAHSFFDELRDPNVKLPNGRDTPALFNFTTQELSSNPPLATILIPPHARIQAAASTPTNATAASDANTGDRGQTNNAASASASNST", "assay": "Eurofins kinase assay"}, "CRAF": {"target": "CRAF (Homo sapiens, UniProt P04049)", "sequence (P04049 whole entry)": "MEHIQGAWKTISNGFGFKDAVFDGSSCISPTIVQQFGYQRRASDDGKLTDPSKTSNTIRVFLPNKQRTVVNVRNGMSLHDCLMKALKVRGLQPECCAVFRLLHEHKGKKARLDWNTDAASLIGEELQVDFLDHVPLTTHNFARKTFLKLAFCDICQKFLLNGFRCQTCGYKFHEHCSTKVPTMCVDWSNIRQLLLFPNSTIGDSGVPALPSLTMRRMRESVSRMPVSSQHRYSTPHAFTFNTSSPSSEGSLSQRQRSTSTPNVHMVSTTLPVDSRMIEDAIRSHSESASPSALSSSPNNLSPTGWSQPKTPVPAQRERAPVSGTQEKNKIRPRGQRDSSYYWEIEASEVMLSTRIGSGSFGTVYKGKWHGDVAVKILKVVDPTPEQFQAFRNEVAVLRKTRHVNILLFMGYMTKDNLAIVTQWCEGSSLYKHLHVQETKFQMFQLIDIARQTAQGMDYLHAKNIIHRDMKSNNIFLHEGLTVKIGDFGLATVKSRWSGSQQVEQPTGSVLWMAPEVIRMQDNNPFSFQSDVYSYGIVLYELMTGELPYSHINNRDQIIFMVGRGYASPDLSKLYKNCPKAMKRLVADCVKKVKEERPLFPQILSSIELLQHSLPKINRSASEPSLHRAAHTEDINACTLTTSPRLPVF", "assay": "Eurofins kinase assay"}, "CK1δ(h)": {"target": "CK1δ(h) (Homo sapiens, UniProt P48730)", "sequence (P48730 whole entry)": "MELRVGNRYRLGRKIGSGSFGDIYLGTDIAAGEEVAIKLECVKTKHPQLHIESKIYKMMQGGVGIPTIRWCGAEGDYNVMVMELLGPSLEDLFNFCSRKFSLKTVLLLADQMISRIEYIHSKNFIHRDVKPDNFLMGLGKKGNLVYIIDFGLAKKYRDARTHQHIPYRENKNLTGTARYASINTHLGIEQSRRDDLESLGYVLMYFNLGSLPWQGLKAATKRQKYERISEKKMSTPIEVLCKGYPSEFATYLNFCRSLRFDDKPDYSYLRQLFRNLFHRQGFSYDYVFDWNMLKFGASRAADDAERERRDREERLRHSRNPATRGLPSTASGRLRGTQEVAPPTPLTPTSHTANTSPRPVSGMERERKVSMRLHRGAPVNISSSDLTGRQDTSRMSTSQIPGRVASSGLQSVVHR", "assay": "Eurofins kinase assay"}, "[1]": {"assay": "2-week repeated oral DRF toxicity study", "assay_type": "in vivo"}, "CDK1/cyclinB(h)": {"target": "CDK1/cyclinB(h) (Homo sapiens, UniProt P06493)", "assay": "Eurofins kinase assay"}, "MST2(h)": {"target": "MST2(h) (Homo sapiens, UniProt Q13188)", "sequence (Q13188 whole entry)": "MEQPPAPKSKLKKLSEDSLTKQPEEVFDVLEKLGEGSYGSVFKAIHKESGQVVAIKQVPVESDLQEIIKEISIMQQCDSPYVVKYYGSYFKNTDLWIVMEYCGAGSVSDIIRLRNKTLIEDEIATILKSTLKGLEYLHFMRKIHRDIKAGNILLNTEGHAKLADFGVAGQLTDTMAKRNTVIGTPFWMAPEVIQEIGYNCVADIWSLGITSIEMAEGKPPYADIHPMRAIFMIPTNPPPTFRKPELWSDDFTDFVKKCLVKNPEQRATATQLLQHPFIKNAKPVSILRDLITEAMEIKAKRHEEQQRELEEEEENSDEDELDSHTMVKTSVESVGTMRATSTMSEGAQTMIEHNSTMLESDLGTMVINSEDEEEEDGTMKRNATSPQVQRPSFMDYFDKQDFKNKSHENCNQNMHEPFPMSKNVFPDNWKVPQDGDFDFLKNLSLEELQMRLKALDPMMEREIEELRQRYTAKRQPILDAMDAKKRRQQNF", "assay": "Eurofins kinase assay"}, "CHK2(h)": {"target": "CHK2(h) (Homo sapiens, UniProt O96017)", "sequence (O96017 whole entry)": "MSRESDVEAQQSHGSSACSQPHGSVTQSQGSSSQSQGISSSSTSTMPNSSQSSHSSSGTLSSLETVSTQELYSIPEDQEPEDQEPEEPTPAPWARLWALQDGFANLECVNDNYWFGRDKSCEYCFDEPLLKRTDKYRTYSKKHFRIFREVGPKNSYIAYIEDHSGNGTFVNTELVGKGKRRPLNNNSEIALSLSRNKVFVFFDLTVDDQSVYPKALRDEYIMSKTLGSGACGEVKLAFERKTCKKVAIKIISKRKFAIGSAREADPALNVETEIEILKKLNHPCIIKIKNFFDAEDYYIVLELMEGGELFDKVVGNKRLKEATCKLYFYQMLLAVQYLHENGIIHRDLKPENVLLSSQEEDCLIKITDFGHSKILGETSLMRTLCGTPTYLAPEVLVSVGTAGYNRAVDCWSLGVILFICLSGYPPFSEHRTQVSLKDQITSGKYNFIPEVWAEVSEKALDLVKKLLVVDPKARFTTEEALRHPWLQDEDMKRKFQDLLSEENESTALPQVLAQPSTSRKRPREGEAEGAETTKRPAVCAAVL", "assay": "Eurofins kinase assay"}, "Rsk1(h)": {"target": "Rsk1(h) (Homo sapiens, UniProt Q15418)", "sequence (Q15418 whole entry)": "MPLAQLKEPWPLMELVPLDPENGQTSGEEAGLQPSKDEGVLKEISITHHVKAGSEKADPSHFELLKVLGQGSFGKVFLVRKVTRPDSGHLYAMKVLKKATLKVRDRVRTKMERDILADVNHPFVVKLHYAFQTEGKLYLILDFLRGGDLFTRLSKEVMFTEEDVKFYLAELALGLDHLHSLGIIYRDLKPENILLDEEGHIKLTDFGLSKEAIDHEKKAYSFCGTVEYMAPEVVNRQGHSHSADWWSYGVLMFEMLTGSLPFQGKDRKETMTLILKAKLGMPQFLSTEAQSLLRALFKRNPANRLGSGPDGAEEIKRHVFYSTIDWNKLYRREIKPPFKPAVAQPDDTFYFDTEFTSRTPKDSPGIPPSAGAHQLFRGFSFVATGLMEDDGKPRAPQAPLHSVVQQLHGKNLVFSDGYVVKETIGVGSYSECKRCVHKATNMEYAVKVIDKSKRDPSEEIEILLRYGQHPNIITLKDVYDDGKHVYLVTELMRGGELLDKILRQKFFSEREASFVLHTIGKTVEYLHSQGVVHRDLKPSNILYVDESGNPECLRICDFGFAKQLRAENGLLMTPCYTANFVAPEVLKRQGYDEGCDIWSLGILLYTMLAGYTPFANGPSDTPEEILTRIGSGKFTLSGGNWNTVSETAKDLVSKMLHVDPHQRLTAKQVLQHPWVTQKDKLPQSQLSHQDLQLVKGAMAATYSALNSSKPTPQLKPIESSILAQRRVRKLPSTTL", "assay": "Eurofins kinase assay"}, "PAK2(h)": {"target": "PAK2(h) (Homo sapiens, UniProt Q13177)", "sequence (Q13177 whole entry)": "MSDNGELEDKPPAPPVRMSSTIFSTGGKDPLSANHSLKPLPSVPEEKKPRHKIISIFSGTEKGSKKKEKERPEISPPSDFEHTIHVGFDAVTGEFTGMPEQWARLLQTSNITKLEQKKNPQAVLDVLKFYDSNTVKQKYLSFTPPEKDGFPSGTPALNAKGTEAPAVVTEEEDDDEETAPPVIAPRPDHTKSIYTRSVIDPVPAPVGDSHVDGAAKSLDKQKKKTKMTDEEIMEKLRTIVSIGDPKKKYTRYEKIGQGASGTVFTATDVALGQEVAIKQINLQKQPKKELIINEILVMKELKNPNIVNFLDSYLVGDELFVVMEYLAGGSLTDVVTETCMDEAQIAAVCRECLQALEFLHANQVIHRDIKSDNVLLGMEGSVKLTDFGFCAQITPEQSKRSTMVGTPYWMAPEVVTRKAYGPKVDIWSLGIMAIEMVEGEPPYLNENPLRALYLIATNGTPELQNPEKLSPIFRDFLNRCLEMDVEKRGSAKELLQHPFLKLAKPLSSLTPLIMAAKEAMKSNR", "assay": "Eurofins kinase assay"}, "Pharmacokinetic study": {"assay": "Pharmacokinetic study", "assay_type": "in vivo, C57BL/6 mice", "procedure": "Blood samples were collected at each time point for analysis. Plasma samples were analyzed by liquid chromatography–mass spectrometry (LC-MS/MS)."}, "CSK(h)": {"target": "CSK(h) (Homo sapiens, UniProt P41240)", "sequence (P41240 whole entry)": "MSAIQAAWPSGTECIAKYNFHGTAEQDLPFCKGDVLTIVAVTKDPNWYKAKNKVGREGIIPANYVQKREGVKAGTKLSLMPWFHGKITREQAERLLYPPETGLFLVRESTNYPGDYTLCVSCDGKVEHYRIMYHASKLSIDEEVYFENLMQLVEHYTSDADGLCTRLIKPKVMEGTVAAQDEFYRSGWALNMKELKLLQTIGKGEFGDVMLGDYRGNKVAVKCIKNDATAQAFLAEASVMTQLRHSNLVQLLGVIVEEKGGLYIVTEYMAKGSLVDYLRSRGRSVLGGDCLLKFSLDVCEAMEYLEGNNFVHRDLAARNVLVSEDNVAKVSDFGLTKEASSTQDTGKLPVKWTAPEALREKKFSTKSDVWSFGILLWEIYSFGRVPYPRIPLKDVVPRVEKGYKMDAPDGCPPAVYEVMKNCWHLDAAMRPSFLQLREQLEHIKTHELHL", "assay": "Eurofins kinase assay"}, "[2]": {"conditions": "male, C57BL/6, mouse, plasma, iv 5 mg/kg"}, "[3]": {"conditions": "male, C57BL/6, mouse, plasma, po 40 mg/kg"}},
  "note": "Several values for one entry are separate records, joined by “and”; a condition that tells them apart may be missing. Identical values can stand only once.",
  "data": [
    {"smiles": "O=C(Nc1cc(Nc2ncccc2-c2ncnc3[nH]cnc23)ccc1F)c1cc(C(F)(F)F)cc(C(F)(F)F)c1", "note": "[SJ-C1044, N-(5-(3-(9H-purin-6-yl)pyridin-2-ylamino)-2-fluorophenyl)-3,5-bis(trifluoromethyl)benzamide]", "values": [
      {"measurement": "inhibition at 10 µM", "setting": "CDK5/p35(h)", "result": -19, "unit": "%"},
      {"measurement": "inhibition at 10 µM", "setting": "GSK3β(h)", "result": -5, "unit": "%"},
      {"measurement": "inhibition at 10 µM", "setting": "CRAF", "result": 86, "unit": "%"},
      {"measurement": "inhibition at 10 µM", "setting": "CK1δ(h)", "result": 0, "unit": "%"},
      {"measurement": "2-week repeated oral toxicity", "setting": "[1]; 250 mg/kg oral", "result": "no toxicity"},
      {"measurement": "2-week repeated oral toxicity", "setting": "[1]; 500 mg/kg oral", "result": "decreased body weight"},
      {"measurement": "inhibition at 10 µM", "setting": "CDK1/cyclinB(h)", "result": -10, "unit": "%"},
      {"measurement": "inhibition at 10 µM", "setting": "MST2(h)", "result": 9, "unit": "%"},
      {"measurement": "inhibition at 10 µM", "setting": "CHK2(h)", "result": 0, "unit": "%"},
      {"measurement": "inhibition at 10 µM", "setting": "Rsk1(h)", "result": 0, "unit": "%"},
      {"measurement": "inhibition at 10 µM", "setting": "PAK2(h)", "result": -1, "unit": "%"},
      {"measurement": "sustained plasma concentration", "setting": "Pharmacokinetic study; for 16 h per day, 40 mg/kg once daily, 40 mg/kg", "result": "≥ 8000 ng/mL and ≥ 14 μM"},
      {"measurement": "AUC(0-t)", "setting": "Pharmacokinetic study; [2]", "result": 97.8, "unit": "µg·h/mL"},
      {"measurement": "Cmax", "setting": "Pharmacokinetic study; [2]", "result": 11400, "unit": "ng/mL"},
      {"measurement": "Tmax", "setting": "Pharmacokinetic study; [2]", "result": 1.6, "unit": "h"},
      {"measurement": "AUC(0-t)", "setting": "Pharmacokinetic study; [3]", "result": 228, "unit": "µg·h/mL"},
      {"measurement": "Cmax", "setting": "Pharmacokinetic study; [3]", "result": 14900, "unit": "ng/mL"},
      {"measurement": "Tmax", "setting": "Pharmacokinetic study; [3]", "result": 4.3, "unit": "h"},
      {"measurement": "bioavailability", "setting": "Pharmacokinetic study; [3]", "result": 23, "unit": "%"},
      {"measurement": "inhibition at 10 µM", "setting": "CSK(h)", "result": 3, "unit": "%"}
    ]}
  ]
}
